For three compounds, CMC and γcmc results are on record in patent US20070243321A1, “Aqueous Bitumen Emulsion” (Eiffage Travaux Publics, priority 2004, published 2007).

This series can be described thus: Measurement of surface tension and critical micellar concentrations (rising drop tensiometer). As to conditions: for CMC: critical micellar concentration; for γcmc: surface tension at the CMC, rising drop. It is filed as physicochemical. The protocol: Measurement of Surface Tension and Critical Micellar Concentrations The tensiometric measurements were carried out with a drop tensiometer operating by the method of the rising drop ([…] tensiometer, I.T. CONCEPT).

Consider “betainylaminooctadecane mesylate [Amides C18:0]”, for which the CMC stood at 140 µM and the γcmc is reported as 36.0 mN/m.
For “octadecyl betaine mesylate [Esters C18:0]”, in that order: 800 µM and 37.2 mN/m.
In turn, `CCCCCCCCCCCCOS(=O)(=O)[O-].[Na+]` [SDS (C12), reference compound] registered a CMC of 8000 µM and a γcmc of 30.0 mN/m.
